# Patent US20170190671A1, “BIS(ARYL)CATECHOL DERIVATIVES AS HERBICIDES” (E I DU PONT DE NEMOURS AND COMPANY, priority 2014, published 2017)
# How the values were obtained:
# Experiment in all cases: Test D postemergence
# Type in all cases: in vivo
# Conditions in all cases: scale 0 to 100
# [1] = system: winter wheat (Triticum aestivum)
# From the text: (§1) Seeds of plant species selected from bluegrass (annual bluegrass, Poa annua), blackgrass (Alopecurus myosuroides), canarygrass (Phalaris minor), chickweed (common chickweed, Stellaria media), cutleaf geranium (Geranium dissectum), galium (catchweed bedstraw, Galium aparine), downy bromegrass (Bromus tectorum), field poppy (Papaver rhoeas), field violet (Viola arvensis), green foxtail (Setaria viridis), deadnettle (henbit deadnettle, Lamium amplexicaule), Italian ryegrass (Lolium multiflorum), kochia (Kochia scoparia), lambsquarters (Chenopodium album), oilseed rape (Brassica napus), pigweed (Amaranthus retroflexus), chamomile (scentless chamomile, Matricaria inodora), Russian thistle (Salsola kali), speedwell (bird's-eye speedwell, Veronica persica), spring barley (Hordeum vulgare), spring wheat (Triticum aestivum), wild buckwheat (Polygonum convolvulus), wild mustard (Sinapis arvensis), wild oat (Avenafatua), wild radish (Raphanus raphanistrum), windgrass (Apera spica-venti), winter barley (Hordeum vulgare), and winter wheat (Triticum aestivum) were planted into a silt loam soil and treated preemergence with test chemicals formulated in a non-phytotoxic solvent mixture which included a surfactant.
# (§2) At the same time, these species were planted in pots containing Redi-Earth® planting medium (Scotts Company, 14111 Scottslawn Road, Marysville, Ohio 43041) comprising spaghnum peat moss, vermiculite, wetting agent and starter nutrients and treated with postemergence applications of the test chemicals formulated in the same manner. Plants ranged in height from 2 to 18 cm (1- to 4-leaf stage). Treated plants and controls were maintained in a controlled growth environment for 14 to 21 days after which time all species were compared to controls and visually evaluated. Plant response ratings, summarized in Table D, are based on a scale of 0 to 100 where 0 is no effect and 100 is complete control. A dash (-) response means no test result.
# [2] = system: chickweed (common chickweed, Stellaria media)
# From the text: as §1, §2
# kochia (Kochia scoparia) = system: kochia (Kochia scoparia)
# From the text: as §1, §2
# [3] = system: Russian thistle (Salsola kali)
# From the text: as §1, §2
# [4] = system: wild mustard (Sinapis arvensis)
# From the text: as §1, §2
# [5] = system: pigweed (Amaranthus retroflexus)
# From the text: as §1, §2
# [6] = system: bluegrass (annual bluegrass, Poa annua)
# From the text: as §1, §2
# [7] = system: chamomile (scentless chamomile, Matricaria inodora)
# From the text: as §1, §2
# [8] = system: cutleaf geranium (Geranium dissectum)
# From the text: as §1, §2
# [9] = system: winter barley (Hordeum vulgare)
# From the text: as §1, §2
# [10] = system: downy bromegrass (Bromus tectorum)
# From the text: as §1, §2
# [11] = system: lambsquarters (Chenopodium album)
# From the text: as §1, §2
# [12] = system: oilseed rape (Brassica napus)
# From the text: as §1, §2
# [13] = system: blackgrass (Alopecurus myosuroides)
# From the text: as §1, §2
# [14] = system: wild buckwheat (Polygonum convolvulus)
# From the text: as §1, §2
# [15] = system: deadnettle (henbit deadnettle, Lamium amplexicaule)
# From the text: as §1, §2
# [16] = system: canarygrass (Phalaris minor)
# From the text: as §1, §2
# [17] = system: field violet (Viola arvensis)
# From the text: as §1, §2
# [18] = system: green foxtail (Setaria viridis)
# From the text: as §1, §2
# [19] = system: spring wheat (Triticum aestivum)
# From the text: as §1, §2
# [20] = system: field poppy (Papaver rhoeas)
# From the text: as §1, §2
smiles,measurement,setting,value
FC(F)(F)c1cnc(Oc2c(Br)cccc2Oc2ncc(Cl)cn2)nc1 [Compound 24],"Plant response rating, Wheat, Winter",[1]; 16 g ai/ha,10
same,"Plant response rating, Wheat, Winter",[1]; 31 g ai/ha,10
same,"Plant response rating, Wheat, Winter",[1]; 62 g ai/ha,15
same,"Plant response rating, Wheat, Winter",[1]; 125 g ai/ha,15
same,"Plant response rating, Chickweed",[2]; 16 g ai/ha,60
same,"Plant response rating, Chickweed",[2]; 31 g ai/ha,70
same,"Plant response rating, Chickweed",[2]; 62 g ai/ha,75
same,"Plant response rating, Chickweed",[2]; 125 g ai/ha,85
same,"Plant response rating, Kochia",kochia (Kochia scoparia); 16 g ai/ha,40
same,"Plant response rating, Kochia",kochia (Kochia scoparia); 31 g ai/ha,65
same,"Plant response rating, Kochia",kochia (Kochia scoparia); 62 g ai/ha,80
same,"Plant response rating, Kochia",kochia (Kochia scoparia); 125 g ai/ha,95
same,"Plant response rating, Russian Thistle",[3]; 16 g ai/ha,10
same,"Plant response rating, Russian Thistle",[3]; 31 g ai/ha,25
same,"Plant response rating, Russian Thistle",[3]; 62 g ai/ha,30
same,"Plant response rating, Russian Thistle",[3]; 125 g ai/ha,55
same,"Plant response rating, Mustard, Wild",[4]; 16 g ai/ha,50
same,"Plant response rating, Mustard, Wild",[4]; 31 g ai/ha,80
same,"Plant response rating, Mustard, Wild",[4]; 62 g ai/ha,70
same,"Plant response rating, Mustard, Wild",[4]; 125 g ai/ha,85
same,"Plant response rating, Pigweed",[5]; 16 g ai/ha,85
same,"Plant response rating, Pigweed",[5]; 31 g ai/ha,95
same,"Plant response rating, Pigweed",[5]; 62 g ai/ha,98
same,"Plant response rating, Pigweed",[5]; 125 g ai/ha,100
same,"Plant response rating, Bluegrass",[6]; 16 g ai/ha,15
same,"Plant response rating, Bluegrass",[6]; 31 g ai/ha,20
same,"Plant response rating, Bluegrass",[6]; 62 g ai/ha,35
same,"Plant response rating, Bluegrass",[6]; 125 g ai/ha,40
same,"Plant response rating, Chamomile",[7]; 16 g ai/ha,5
same,"Plant response rating, Chamomile",[7]; 31 g ai/ha,5
same,"Plant response rating, Chamomile",[7]; 62 g ai/ha,10
same,"Plant response rating, Chamomile",[7]; 125 g ai/ha,15
same,"Plant response rating, Geranium, Cutleaf",[8]; 16 g ai/ha,20
same,"Plant response rating, Geranium, Cutleaf",[8]; 31 g ai/ha,30
same,"Plant response rating, Geranium, Cutleaf",[8]; 62 g ai/ha,45
same,"Plant response rating, Geranium, Cutleaf",[8]; 125 g ai/ha,65
same,"Plant response rating, Barley, Winter",[9]; 16 g ai/ha,10
same,"Plant response rating, Barley, Winter",[9]; 31 g ai/ha,15
same,"Plant response rating, Barley, Winter",[9]; 62 g ai/ha,20
same,"Plant response rating, Barley, Winter",[9]; 125 g ai/ha,25
same,"Plant response rating, Bromegrass, Downy",[10]; 16 g ai/ha,15
same,"Plant response rating, Bromegrass, Downy",[10]; 31 g ai/ha,20
same,"Plant response rating, Bromegrass, Downy",[10]; 62 g ai/ha,20
same,"Plant response rating, Bromegrass, Downy",[10]; 125 g ai/ha,25
same,"Plant response rating, Lambsquarters",[11]; 16 g ai/ha,35
same,"Plant response rating, Lambsquarters",[11]; 31 g ai/ha,45
same,"Plant response rating, Lambsquarters",[11]; 62 g ai/ha,60
same,"Plant response rating, Lambsquarters",[11]; 125 g ai/ha,75
same,"Plant response rating, Oilseed Rape",[12]; 16 g ai/ha,65
same,"Plant response rating, Oilseed Rape",[12]; 31 g ai/ha,70
same,"Plant response rating, Oilseed Rape",[12]; 62 g ai/ha,75
same,"Plant response rating, Oilseed Rape",[12]; 125 g ai/ha,80
same,"Plant response rating, Blackgrass",[13]; 16 g ai/ha,25
same,"Plant response rating, Blackgrass",[13]; 31 g ai/ha,30
same,"Plant response rating, Blackgrass",[13]; 62 g ai/ha,35
same,"Plant response rating, Blackgrass",[13]; 125 g ai/ha,45
same,"Plant response rating, Buckwheat, Wild",[14]; 16 g ai/ha,60
same,"Plant response rating, Buckwheat, Wild",[14]; 31 g ai/ha,60
same,"Plant response rating, Buckwheat, Wild",[14]; 62 g ai/ha,75
same,"Plant response rating, Buckwheat, Wild",[14]; 125 g ai/ha,95
same,"Plant response rating, Deadnettle",[15]; 16 g ai/ha,55
same,"Plant response rating, Deadnettle",[15]; 31 g ai/ha,70
same,"Plant response rating, Deadnettle",[15]; 62 g ai/ha,75
same,"Plant response rating, Deadnettle",[15]; 125 g ai/ha,85
same,"Plant response rating, Canarygrass",[16]; 16 g ai/ha,30
same,"Plant response rating, Canarygrass",[16]; 31 g ai/ha,35
same,"Plant response rating, Canarygrass",[16]; 62 g ai/ha,45
same,"Plant response rating, Canarygrass",[16]; 125 g ai/ha,45
same,"Plant response rating, Field Violet",[17]; 16 g ai/ha,65
same,"Plant response rating, Field Violet",[17]; 31 g ai/ha,75
same,"Plant response rating, Field Violet",[17]; 62 g ai/ha,85
same,"Plant response rating, Field Violet",[17]; 125 g ai/ha,98
same,"Plant response rating, Foxtail, Green",[18]; 16 g ai/ha,15
same,"Plant response rating, Foxtail, Green",[18]; 31 g ai/ha,15
same,"Plant response rating, Foxtail, Green",[18]; 62 g ai/ha,20
same,"Plant response rating, Foxtail, Green",[18]; 125 g ai/ha,30
same,"Plant response rating, Wheat, Spring",[19]; 16 g ai/ha,10
same,"Plant response rating, Wheat, Spring",[19]; 31 g ai/ha,15
same,"Plant response rating, Wheat, Spring",[19]; 62 g ai/ha,20
same,"Plant response rating, Wheat, Spring",[19]; 125 g ai/ha,20
same,"Plant response rating, Field Poppy",[20]; 16 g ai/ha,70
same,"Plant response rating, Field Poppy",[20]; 31 g ai/ha,80
same,"Plant response rating, Field Poppy",[20]; 62 g ai/ha,90
same,"Plant response rating, Field Poppy",[20]; 125 g ai/ha,95
